From patent publication US12655116B2, “Substituted isophthalic acid diamides” (Bayer Aktiengesellschaft, priority 2020, dated 2026)

Tests used:
VIOTR = test: Post-emergence herbicidal action against VIOTR; format: in vivo, Viola tricolor; settings: Viola tricolor, 504 h
Method in brief: (§1)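 Weeds in sandy loam soil received a post-emergence spray at the one-leaf stage. Compounds were applied as WP or EC in water, 600 to 800 l/ha, with 0.2% wetting agent. Activity in % was judged visually after roughly 3 weeks against untreated plants.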

ABUTH [1] = test: Post-emergence herbicidal action against ABUTH; format: in vivo, Abutilon theophrasti; settings: Abutilon theophrasti, 504 h, visual assessment about 3 weeks after treatment vs untreated controls; for pest or weed control at 20 g/ha: dosage 20 g/ha; for pest or weed control at 80 g/ha: dosage 80 g/ha
Method in brief: as §1

AMARE = test: Post-emergence herbicidal action against AMARE; format: in vivo, Amaranthus retroflexus; settings: Amaranthus retroflexus, 504 h, visual assessment about 3 weeks after treatment, 100% = plants have died, 0% = like control plants
Method in brief: as §1

LOLRI [2] = test: Post-emergence herbicidal action against LOLRI; format: in vivo, Lolium rigidum; settings: Lolium rigidum, 504 h, dosage 80 g/ha
Method in brief: as §1

MATIN [3] = test: Post-emergence herbicidal action against MATIN; format: in vivo, Matricaria inodora; settings: Tripleurospermum inodorum, 504 h; for pest or weed control at 20 g/ha: dosage 20 g/ha; for pest or weed control at 80 g/ha: dosage 80 g/ha
Method in brief: as §1

HORMU [4] = test: Pre-emergence herbicidal action against HORMU; format: in vivo, Hordeum murinum; settings: Hordeum murinum, 504 h, pre-emergence
Method in brief: (§2)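 Visual rating at 3 weeks vs untreated pots; 0–100% scale, 100% = plants died. Treatment: aqueous WP/EC spray onto covering soil, 600–800 l/ha, 0.2% wetter, seeds in sandy loam.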

SETVI = test: Post-emergence herbicidal action against SETVI; format: in vivo, Setaria viridis; settings: Setaria viridis, 504 h
Method in brief: as §1

AVEFA [5] = test: Pre-emergence herbicidal action against AVEFA; format: in vivo, Avena fatua; settings: Avena fatua, 504 h, pre-emergence; for pest or weed control at 320 g/ha: scored visually after 3 weeks, 100% = plants have died, 0% = like control plants
Method in brief: as §2

POLCO [6] = test: Post-emergence herbicidal action against POLCO; format: in vivo, Polygonum convolvulus; settings: Fallopia convolvulus, 504 h, dosage 80 g/ha
Method in brief: as §1

POLCO [7] = test: Pre-emergence herbicidal action against POLCO; format: in vivo, Polygonum convolvulus; settings: Fallopia convolvulus, 504 h, dosage 320 g/ha
Method in brief: as §2

STEME [8] = test: Pre-emergence herbicidal action against STEME; format: in vivo, Stellaria media; settings: Stellaria media, 504 h; for pest or weed control at 80 g/ha: dosage 80 g/ha; for pest or weed control at 320 g/ha: dosage 320 g/ha
Method in brief: as §2

PHBPU = test: Post-emergence herbicidal action against PHBPU; format: in vivo, Pharbitis purpurea; settings: Ipomoea purpurea, 504 h; for pest or weed control at 80 g/ha: dosage 80 g/ha
Method in brief: as §1

VERPE [9] = test: Post-emergence herbicidal action against VERPE; format: in vivo, Veronica persica; settings: Veronica persica, 504 h
Method in brief: as §1

ECHCG [10] = test: Pre-emergence herbicidal action against ECHCG; format: in vivo, Echinochloa crus-galli; settings: Echinochloa crus-galli, 504 h
Method in brief: as §2

STEME [11] = test: Post-emergence herbicidal action against STEME; format: in vivo, Stellaria media; settings: Stellaria media, 504 h
Method in brief: as §1

MATIN [12] = test: Pre-emergence herbicidal action against MATIN; format: in vivo, Matricaria inodora; settings: Tripleurospermum inodorum, 504 h; for pest or weed control at 80 g/ha: dosage 80 g/ha; for pest or weed control at 320 g/ha: dosage 320 g/ha
Method in brief: as §2

LOLRI [13] = test: Pre-emergence herbicidal action against LOLRI; format: in vivo, Lolium rigidum; settings: Lolium rigidum, 504 h, 320 g/ha
Method in brief: as §2

ECHCG [14] = test: Post-emergence herbicidal action against ECHCG; format: in vivo, Echinochloa crus-galli; settings: Echinochloa crus-galli, 504 h; for pest or weed control at 20 g/ha: dosage 20 g/ha; for pest or weed control at 80 g/ha: dosage 80 g/ha
Method in brief: as §1

ALOMY = test: Post-emergence herbicidal action against ALOMY; format: in vivo, Alopecurus myosuroides; settings: Alopecurus myosuroides, 504 h, visual assessment about 3 weeks after treatment vs untreated controls; for pest or weed control at 20 g/ha: dosage 20 g/ha; for pest or weed control at 80 g/ha: dosage 80 g/ha
Method in brief: as §1

AVEFA [15] = test: Post-emergence herbicidal action against AVEFA; format: in vivo, Avena fatua; settings: Avena fatua, 504 h, visual assessment about 3 weeks after treatment, 100% = plants have died, 0% = like control plants
Method in brief: as §1

HORMU [16] = test: Post-emergence herbicidal action against HORMU; format: in vivo, Hordeum murinum; settings: Hordeum murinum, 504 h; for pest or weed control at 20 g/ha: dosage 20 g/ha; for pest or weed control at 80 g/ha: dosage 80 g/ha
Method in brief: as §1

VERPE [17] = test: Pre-emergence herbicidal action against VERPE; format: in vivo, Veronica persica; settings: Veronica persica, 504 h, dosage 320 g/ha
Method in brief: as §2

ABUTH [18] = test: Pre-emergence herbicidal action against ABUTH; format: in vivo, Abutilon theophrasti; settings: Abutilon theophrasti, 504 h; for pest or weed control at 80 g/ha: scored visually after 3 weeks vs untreated controls (100% = plants have died, 0% = like control plants); for pest or weed control at 320 g/ha: Dosage: 320 g/ha, scored visually after 3 weeks
Method in brief: as §2

[19] = 100% = plants have died, 0% = like control plants

CNC(=O)c1c(C(F)(F)F)ccc(C(=O)Nc2nnc(C)o2)c1Cl [Example 6-116]
pest or weed control at 20 g/ha (VIOTR; 20 g/ha): 80%
pest or weed control at 80 g/ha (VIOTR): 100%
pest or weed control at 5 g/ha (ABUTH [1]; dosage 5 g/ha): 90%
pest or weed control at 20 g/ha (ABUTH [1]): 100%
pest or weed control at 80 g/ha (ABUTH [1]): 100%
pest or weed control at 20 g/ha (AMARE): 100%
pest or weed control at 80 g/ha (AMARE): 100%
pest or weed control at 80 g/ha (LOLRI [2]): 90%
pest or weed control at 5 g/ha (MATIN [3]; dosage 5 g/ha): 80%
pest or weed control at 20 g/ha (MATIN [3]): 90%
pest or weed control at 80 g/ha (MATIN [3]): 100%
pest or weed control at 80 g/ha (HORMU [4]): 90%
pest or weed control at 320 g/ha (HORMU [4]): 100%
pest or weed control at 5 g/ha (SETVI; dosage 5 g/ha): 100%
pest or weed control at 20 g/ha (SETVI; dosage 20 g/ha): 100%
pest or weed control at 80 g/ha (SETVI; dosage 80 g/ha): 100%
pest or weed control at 80 g/ha (AVEFA [5]): 100%
pest or weed control at 320 g/ha (AVEFA [5]): 100%
pest or weed control at 80 g/ha (POLCO [6]): 80%
pest or weed control at 320 g/ha (POLCO [7]): 90%
pest or weed control at 20 g/ha (STEME [8]; dosage 20 g/ha): 90%
pest or weed control at 80 g/ha (STEME [8]): 100%
pest or weed control at 320 g/ha (STEME [8]): 100%
pest or weed control at 5 g/ha (PHBPU; dosage 5 g/ha): 80%
pest or weed control at 20 g/ha (PHBPU; dosage 20 g/ha): 80%
pest or weed control at 80 g/ha (PHBPU): 90%
pest or weed control at 80 g/ha (VERPE [9]): 90%
pest or weed control at 80 g/ha (ECHCG [10]): 100%
pest or weed control at 320 g/ha (ECHCG [10]): 100%
pest or weed control at 20 g/ha (STEME [11]): 100%
pest or weed control at 80 g/ha (STEME [11]): 100%
pest or weed control at 5 g/ha (STEME [11]; dosage 5 g/ha): 90%
pest or weed control at 20 g/ha (MATIN [12]; dosage 20 g/ha): 90%
pest or weed control at 80 g/ha (MATIN [12]): 90%
pest or weed control at 320 g/ha (MATIN [12]): 100%
pest or weed control at 320 g/ha (LOLRI [13]): 100%
pest or weed control at 20 g/ha (ECHCG [14]): 100%
pest or weed control at 80 g/ha (ECHCG [14]): 100%
pest or weed control at 20 g/ha (ALOMY): 80%
pest or weed control at 80 g/ha (ALOMY): 100%
pest or weed control at 5 g/ha (AVEFA [15]; 5 g/ha): 100%
pest or weed control at 20 g/ha (AVEFA [15]): 100%
pest or weed control at 80 g/ha (AVEFA [15]): 100%
pest or weed control at 20 g/ha (HORMU [16]): 90%
pest or weed control at 80 g/ha (HORMU [16]): 100%
pest or weed control at 320 g/ha (VERPE [17]): 80%
pest or weed control at 80 g/ha (ABUTH [18]): 100%
pest or weed control at 320 g/ha (ABUTH [18]; [19]): 100%
pest or weed control at 20 g/ha (ABUTH [18]; dosage 20 g/ha, scored visually after 3 weeks vs untreated controls, 100% = plants have died, 0% = like control plants, read-out: Pre-emergence action against ABUTH (herbicidal activity in percent)): 100%

CCn1nnnc1NC(=O)c1ccc(C(F)F)c(C(=O)NC)c1Cl [Example 2-147]
pest or weed control at 80 g/ha (VIOTR): 80%
pest or weed control at 20 g/ha (ABUTH [1]): 90%
pest or weed control at 80 g/ha (ABUTH [1]): 90%
pest or weed control at 20 g/ha (AMARE): 90%
pest or weed control at 80 g/ha (AMARE): 90%
pest or weed control at 80 g/ha (LOLRI [2]): 90%
pest or weed control at 20 g/ha (MATIN [3]): 100%
pest or weed control at 80 g/ha (MATIN [3]): 100%
pest or weed control at 80 g/ha (HORMU [4]): 90%
pest or weed control at 320 g/ha (HORMU [4]): 100%
pest or weed control at 80 g/ha (AVEFA [5]): 100%
pest or weed control at 320 g/ha (AVEFA [5]): 100%
pest or weed control at 80 g/ha (POLCO [6]): 80%
pest or weed control at 320 g/ha (POLCO [7]): 80%
pest or weed control at 80 g/ha (STEME [8]): 100%
pest or weed control at 320 g/ha (STEME [8]): 100%
pest or weed control at 80 g/ha (PHBPU): 80%
pest or weed control at 20 g/ha (VERPE [9]; 20 g/ha): 80%
pest or weed control at 80 g/ha (VERPE [9]): 90%
pest or weed control at 80 g/ha (ECHCG [10]): 100%
pest or weed control at 320 g/ha (ECHCG [10]): 100%
pest or weed control at 20 g/ha (STEME [11]): 80%
pest or weed control at 80 g/ha (STEME [11]): 90%
pest or weed control at 80 g/ha (MATIN [12]): 100%
pest or weed control at 320 g/ha (MATIN [12]): 100%
pest or weed control at 320 g/ha (LOLRI [13]): 90%
pest or weed control at 20 g/ha (ECHCG [14]): 90%
pest or weed control at 80 g/ha (ECHCG [14]): 90%
pest or weed control at 20 g/ha (ALOMY): 80%
pest or weed control at 80 g/ha (ALOMY): 90%
pest or weed control at 20 g/ha (AVEFA [15]): 90%
pest or weed control at 80 g/ha (AVEFA [15]): 100%
pest or weed control at 20 g/ha (HORMU [16]): 80%
pest or weed control at 80 g/ha (HORMU [16]): 90%
pest or weed control at 320 g/ha (VERPE [17]): 90%
pest or weed control at 80 g/ha (ABUTH [18]): 100%
pest or weed control at 320 g/ha (ABUTH [18]; [19]): 100%
